Earlier results as cited in patent US7601427B2, “Curable composition, cured film, antireflection film, polarizing plate and liquid crystal display” (Fujifilm Corporation, priority 2005, dated 2009).

Details: pKa of conjugate acid, aqueous solution, from Kagaku Binran

Q: With `CN(C)CCO` [b-17, N,N′-Dimethyl-2-aminoethanol] as the compound, how does the pKa read?
A: Its pKa is 9.5.
